Test results taken from patent publication US20240076272A1, “Activators of Heme Regulated Inhibitor Kinase (HRI)” (The Brigham and Women`s Hospital, Inc., priority 2019, published 2024).
Like-named read-outs stand apart in the source and are kept apart here. Values belong to the compound of their own block, whether it stands above or below them.

Assays:
[1] = test system: human melanoma CRL-2813 cells; assay: sulforhodamine B (SRB) cell proliferation assay; assay type: cell-based; conditions: 5 days, read-out: IC50 (concentration that inhibits growth of human melanoma CRL-2813 cells by 50%)
Protocol: Cells were seeded in 96-well plates and maintained for 5 days in the presence of 0.5 μM to 20 μM of individual compound, and cell proliferation was measured by the sulforhodamine B (SRB) assay according to previous reports (see e.g., Palakurthi et al, Cancer Res. 60 (2000) 2919-2925): briefly, at the end of a 5-day treatment, cells were fixed in 10% cold trichloroacetic acid. Cell number was estimated by measuring the remaining bound dye of sulforhodamine B after washing. The percentage of growth was calculated by using the equation: 100×[(T-T0)/(C-T0)], where T and C represent the absorbance in treated and control cultures at Day 5, and T0 at time zero, respectively. If T was less than T0, cell death had occurred and was calculated from 100×[(T-T0)/T0].
All 4-CF3-ΦOcAlkΦUs were tested in the sulforhodamine B (SRB) cell proliferation assay to establish the concentrations that inhibit human melanoma CRL-2813 cells growth by 50% (IC50) (see Table 1). This activity reflects a combined effect of membrane permeability and overall anti-proliferative effects that include on target and off-target effects.

CHOP = assay: Western blot, CHOP expression in CRL-2813 cells; assay type: cell-based, human; conditions: 5 μM, 8 hours, Western blot (FIG. 2B)
Protocol: (§1) FIGS. 2A-2B show HRI activators of the present application induce eIF2α phosphorylation and modify its downstream effectors. In FIG. 2A, CRL-2813 cells were treated with 5 μM of each compound for 2 hours, cell lysates were probed with phosphorylated (P-eIF2α) and total eIF2α (T-eIF2α) and β-actin specific antibodies. In FIG. 2B, CRL-2813 cells were treated with 5 μM HRI activators for 8 hours and lysates were immunoblotted with antibodies against CHOP, p27^KiPl, cyclin D1 and β-actin.
(§2) Cells cultured under recommended media conditions were plated and maintained in serum-containing media without antibiotics in 14-cm plates (Nunc) until reaching 70% confluence. Cells were then treated with compounds for 6 h, washed with cold PBS once, and lysed with M-PER Mammalian Protein Extraction Reagent (Pierce) for 30 min on ice. The cell lysates were centrifuged at 12,000 RPM for 15 min and the supernatants were transferred to fresh tubes and the concentrations were determined by BCA (Pierce). Equal amount of proteins were mixed with Laemmli Sample Buffer, heated at 100° C. for 5 min, separated by SDS-PAGE, and probed with anti-phosphoserine-51-eIF2α (Phos-eIF2α), anti-total eIF2α-specific antibodies (Total-eIF2α) (Biosource International, Hopkinton, MA), anti-CHOP, anti-cyclin D1 or anti-actin (Santa Cruz Biotechnology, CA) using procedures substantially similar to previous reports (see e.g., Aktas et al, Mol. Cell. Biol. 17 (1997) 3850-3857).
(§3) Endogenous eIF2α is the best-known substrate of HRI and the upstream regulator of the eIF2·GTP·Met-tRNAi ternary complex abundance, while CHOP expression is a downstream effector of eIF2α phosphorylation. For assessing eIF2α phosphorylation, blotted cell lysates were treated for two hours with vehicle or selected compounds using antibodies specific for the total-eIF2α and the phosphorylated-eIF2α (T-eIF2α and [PhoS^51]-eIF2α), respectively (see e.g., Aktas et al, J. Nutr. 134 (2004) 2487S-2491S) (see FIG. 2A).

cyclin D1 = assay: Western blot, cyclin D1 expression in CRL-2813 cells; assay type: cell-based, human; conditions: 5 μM, 8 hours, Western blot (FIG. 2B)
Protocol: as §1, §2, §3

[2] = test system: MCF-7 cells transfected with siRNA targeting HRI; assay: cell proliferation assay with siRNA knockdown of HRI (specificity for HRI); assay type: cell-based, human; conditions: MCF-7 cells with or without siRNA targeting HRI; three days; SRB (FIG. 3)
Protocol: MCF-7 cells transfected with (solid bars) or without (hatched bars) siRNA targeting HRI were treated with the indicated concentrations of each compound for three days starting one day after transfection. Cell proliferation was measured by sulforhodamine B assay as previously reported (see e.g., Chen et al, Nat. Chem. Biol. 7 (2011) 610-616).
Stable cell lines utilized in this study were generated according to previous reports (see e.g., Bai et al, ChemBioChem, 14 (2013) 1255-1262). Briefly, cells were seeded at the density of 10^5 in 60-mm dish and transfected one day later using the Lipofectamine 2000 (Invitrogen). For selection of stable cell lines, transfected cells were transferred to 100-mm plates and selected with appropriate antibiotics (see e.g., Chen et al, Nat. Chem. Biol. 7 (2011) 610-616). siRNA knockdown was carried out in 96-well plates by reverse transfection as previously reported (see e.g., Chen et al, Nat. Chem. Biol. 7 (2011) 610-616).
To determine the specificity of the compounds described herein for HRI, knockdown expression of HRI in MCF-7 cells using a pool of siRNA targeting HRI was performed, along with a cell proliferation assay as a biologic response parameter (see e.g., Chen et al, Nat. Chem. Biol. 7 (2011) 610-616; and Chen et al, J. Med. Chem. 56 (2013) 9457-9470). This assay was selected because it compares specificity of the compounds for HRI compared to all other cellular targets that can impinge on cell proliferation. MCF-7 human breast cancer cells transfected with siRNA targeting HRI or vehicle were treated with various concentrations of representative 4-CF3-ΦOcHΦUs (1-VI, 4-VI, and 5-VI) and 4-CF3-ΦOcBΦU (1-IV).

SMILES: N#Cc1cc(NC(=O)N[C@H]2CC[C@H](Oc3ccc(C(F)(F)F)cc3)CC2)cc(C(F)(F)F)c1 [Compound 1-VI, 1-(3-cyano-5-trifluoromethyl) phenyl-3-(trans-4-(4-(trifluoromethyl)phenoxy)cyclohexyl)urea, reference compound]
IC50 [1]: 0.35 µM
expression of CHOP relative to DMSO (CHOP): increased the expression of CHOP
expression of cyclin D1 relative to DMSO (cyclin D1): decreased the expression of cyclin D1
effect of knocking down HRI on the anti-proliferative activity [2]: dramatic reduction in the activity

IC50 ([1]; Homo sapiens, CRL2813, 120 h): 0.46 µM
SMILES: N#Cc1ccc(NC(=O)N[C@H]2CC[C@H](Oc3ccc(C(F)(F)F)cc3)CC2)cc1F [Compound 5-VI, 1-(4-Cyano-3-fluorophenyl)-3-(trans-4-(4-(trifluoromethyl)phenoxy)cyclohexyl)urea]
expression of CHOP relative to DMSO (CHOP): increased the expression of CHOP
expression of cyclin D1 relative to DMSO (cyclin D1): decreased the expression of cyclin D1
effect of knocking down HRI on the anti-proliferative activity [2]: dramatic reduction in the activity

IC50 ([1]; Homo sapiens, CRL2813, 120 h): 0.9 µM
SMILES: N#Cc1cc(NC(=O)N[C@H]2C[C@H](Oc3ccc(C(F)(F)F)cc3)C2)cc(C(F)(F)F)c1 [Compound 1-IV, 1-(3-Cyano-5-(trifluoromethyl)phenyl)-3-(trans-3-(4-(trifluoromethyl)phenoxy)cyclobutyl)urea]
expression of CHOP relative to DMSO (CHOP): increased the expression of CHOP
expression of cyclin D1 relative to DMSO (cyclin D1): decreased the expression of cyclin D1
effect of knocking down HRI on the anti-proliferative activity [2]: dramatic reduction in the activity

IC50 [1]: 0.63 ± 0.3 µM
SMILES: N#Cc1cc(F)cc(NC(=O)N[C@H]2CC[C@H](Oc3ccc(C(F)(F)F)cc3)CC2)c1 [Compound 4-VI, 1-(3-Cyano-5-fluorophenyl)-3-(trans-4-(4-(trifluoromethyl)phenoxy)cyclohexyl)urea]
expression of CHOP relative to DMSO (CHOP): increased the expression of CHOP
expression of cyclin D1 relative to DMSO (cyclin D1): decreased the expression of cyclin D1
effect of knocking down HRI on the anti-proliferative activity [2]: dramatic reduction in the activity
